Assay results as given in US12495798B2, “Nicotinamide compound and herbicidal composition comprising compound” (KOREA RESEARCH INSTITUTE OF CHEMICAL TECHNOLOGY, priority 2019, dated 2025).

Legend:
Type in all cases: in vivo
bindweed [1] = assay: Herbicidal activity test against upland field weeds (soil treatment test); parameters: key to Soil treatment herbicidal activity, Bindweed: 0 (no control); 100 (complete control); settings: 50 g ai/ha, scale 0 (no control) to 100 (complete control)
Outline: (§1)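 Pre-emergence test: seeds or rootstocks were sown in fertilized sandy loam, and the next day the soil surface was sprayed with compound at 50 or 75 g a.i./ha in 50% acetone/0.1% Tween-20. Plants were grown in a greenhouse (30±5 °C, 14/10 h light/dark), then visually scored 0–100 against untreated at 14 d (21 d if needed).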

bindweed [2] = assay: Herbicidal activity test against upland field weeds (foliar treatment test); parameters: key to Foliar treatment herbicidal activity, Bindweed: 0 (no control); 100 (complete control); settings: 50 g ai/ha, scale 0-100
Outline: (§2)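 Weeds were raised from seed or rootstocks in horticultural soil in a greenhouse (30±5° C., 14/10 h light/dark), then foliage was hand-sprayed with compound at 50 or 75 g a.i./ha in 50% acetone with 0.1% Tween-20. Control was scored visually 0–100 against untreated plants after 14 days, or 21 if needed.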

fall panicum [3] = assay: as above; parameters: key to Foliar treatment herbicidal activity, Fall panicum: 0 (no control); 100 (complete control); settings: 50 g ai/ha, scale 0-100; for pest or weed control at 50 g/ha: Panicum dichotomiflorum
Outline: as §2

cocklebur [4] = assay: Herbicidal activity test against upland field weeds (soil treatment test); parameters: key to Soil treatment herbicidal activity, Cocklebur: 0 (no control); 100 (complete control); settings: 50 g ai/ha, scale 0 (no control) to 100 (complete control); for pest or weed control at 50 g/ha: Xanthium strumarium
Outline: as §1

velvetleaf [5] = assay: as above; parameters: key to Soil treatment herbicidal activity, velvet leaf: 0 (no control); 100 (complete control); settings: 50 g ai/ha, scale 0 (no control) to 100 (complete control)
Outline: as §1

crabgrass [6] = assay: Herbicidal activity test against upland field weeds (foliar treatment test); parameters: key to Foliar treatment herbicidal activity, Crabgrass: 0 (no control); 100 (complete control); settings: 50 g ai/ha, scale 0-100; for pest or weed control at 50 g/ha: Digitaria sanguinalis
Outline: as §2

quack grass [7] = assay: Herbicidal activity test against upland field weeds (soil treatment test); parameters: key to Soil treatment herbicidal activity, quack grass: 0 (no control); 100 (complete control); settings: 50 g ai/ha, scale 0 (no control) to 100 (complete control)
Outline: as §1

quack grass [8] = assay: Herbicidal activity test against upland field weeds (foliar treatment test); parameters: key to Foliar treatment herbicidal activity, quack grass: 0 (no control); 100 (complete control); settings: 50 g ai/ha, scale 0-100
Outline: as §2

velvetleaf [9] = assay: as above; parameters: key to Foliar treatment herbicidal activity, velvet leaf: 0 (no control); 100 (complete control); settings: 50 g ai/ha; for Foliar treatment herbicidal activity, velvet leaf: scale 0-100; for pest or weed control at 50 g/ha: Abutilon theophrasti, scale 0-100, read-out: Foliar treatment herbicidal activity, velvet leaf
Outline: as §2

black nightshade [10] = assay: as above; parameters: key to Foliar treatment herbicidal activity, black nightshade: 0 (no control); 100 (complete control); settings: 50 g ai/ha, scale 0-100
Outline: as §2

indian jointvetch [11] = assay: as above; parameters: key to Foliar treatment herbicidal activity, Indian jointvetch: 0 (no control); 100 (complete control); settings: 50 g ai/ha, scale 0-100
Outline: as §2

crabgrass [12] = assay: Herbicidal activity test against upland field weeds (soil treatment test); parameters: key to Soil treatment herbicidal activity, Crabgrass: 0 (no control); 100 (complete control); settings: 50 g ai/ha, scale 0 (no control) to 100 (complete control); for pest or weed control at 50 g/ha: Digitaria sanguinalis
Outline: as §1

fall panicum [13] = assay: as above; parameters: key to Soil treatment herbicidal activity, Fall panicum: 0 (no control); 100 (complete control); settings: 50 g ai/ha, scale 0 (no control) to 100 (complete control); for pest or weed control at 50 g/ha: Panicum dichotomiflorum
Outline: as §1

barnyard grass [14] = assay: as above; parameters: key to Soil treatment herbicidal activity, barnyard grass: 0 (no control); 100 (complete control); settings: 50 g ai/ha, scale 0 (no control) to 100 (complete control)
Outline: as §1

black nightshade [15] = assay: as above; parameters: key to Soil treatment herbicidal activity, black nightshade: 0 (no control); 100 (complete control); settings: 50 g ai/ha, scale 0 (no control) to 100 (complete control)
Outline: as §1

sorghum [16] = assay: as above; parameters: key to Soil treatment herbicidal activity, Sorghum: 0 (no control); 100 (complete control); settings: 50 g ai/ha, scale 0 (no control) to 100 (complete control)
Outline: as §1

barnyard grass [17] = assay: Herbicidal activity test against upland field weeds (foliar treatment test); parameters: key to Foliar treatment herbicidal activity, barnyard grass: 0 (no control); 100 (complete control); settings: 50 g ai/ha, scale 0-100
Outline: as §2

cocklebur [18] = assay: as above; parameters: key to Foliar treatment herbicidal activity, Cocklebur: 0 (no control); 100 (complete control); settings: 50 g ai/ha, scale 0-100; for pest or weed control at 50 g/ha: Xanthium strumarium
Outline: as §2

indian jointvetch [19] = assay: Herbicidal activity test against upland field weeds (soil treatment test); parameters: key to Soil treatment herbicidal activity, Indian jointvetch: 0 (no control); 100 (complete control); settings: 50 g ai/ha, scale 0 (no control) to 100 (complete control)
Outline: as §1

sorghum [20] = assay: Herbicidal activity test against upland field weeds (foliar treatment test); parameters: key to Foliar treatment herbicidal activity, Sorghum: 0 (no control); 100 (complete control); settings: 50 g ai/ha, scale 0-100
Outline: as §2

| SMILES | Soil treatment herbicidal activity, Bindweed (bindweed [1]) | Foliar treatment herbicidal activity, Bindweed (bindweed [2]) | Foliar treatment herbicidal activity, Fall panicum (fall panicum [3]) | Soil treatment herbicidal activity, Cocklebur (cocklebur [4]) | Soil treatment herbicidal activity, velvet leaf (velvetleaf [5]) | Foliar treatment herbicidal activity, Crabgrass (crabgrass [6]) | Soil treatment herbicidal activity, quack grass (quack grass [7]) | Foliar treatment herbicidal activity, quack grass (quack grass [8]) | Foliar treatment herbicidal activity, velvet leaf (velvetleaf [9]) | Foliar treatment herbicidal activity, black nightshade (black nightshade [10]) | Foliar treatment herbicidal activity, Indian jointvetch (indian jointvetch [11]) | Soil treatment herbicidal activity, Crabgrass (crabgrass [12]) | Soil treatment herbicidal activity, Fall panicum (fall panicum [13]) | Soil treatment herbicidal activity, barnyard grass (barnyard grass [14]) | Soil treatment herbicidal activity, black nightshade (black nightshade [15]) | Soil treatment herbicidal activity, Sorghum (sorghum [16]) | Foliar treatment herbicidal activity, barnyard grass (barnyard grass [17]) | Foliar treatment herbicidal activity, Cocklebur (cocklebur [18]) | Soil treatment herbicidal activity, Indian jointvetch (indian jointvetch [19]) | Foliar treatment herbicidal activity, Sorghum (sorghum [20]) | further results |
| --- | --- | --- | --- | --- | --- | --- | --- | --- | --- | --- | --- | --- | --- | --- | --- | --- | --- | --- | --- | --- | --- |
| Cn1nnc(C[S+]([O-])Cc2nc(C(F)F)ccc2C(=O)Nc2nnnn2C)n1 (centres unmarked) [Compound No. 2-111, 6-(difluoromethyl)-N-(1-methyl-1H-tetrazol-1-yl)-2-((((2-methyl-2H-tetrazol-5-yl)methyl)sulfinyl)methyl)nicotinamide] | 0 | 98 | 95 | 0 | 0 | 98 | 0 | 0 | 80 | 100 | 95 | 0 | 0 | 0 | 90 | 0 | 100 | 100 | 0 | 70 | – |
| Cc1cc(C(=O)Nc2nnnn2C)c(OCc2nnnn2C)nc1C(F)(F)F [Compound No. 1-17, 5-methyl-N-(1-methyl-1H-tetrazol-5-yl)-2-((1-methyl-1H-tetrazol-5-yl)methoxy)-6-(trifluoromethyl)nicotinamide] | – | – | – | – | – | – | 0 | 0 | – | 100 | 0 | – | – | 0 | 100 | 0 | 0 | – | 0 | 0 | pest or weed control at 50 g/ha (bindweed [1]): 20%; pest or weed control at 50 g/ha (bindweed [2]): 20%; pest or weed control at 50 g/ha (fall panicum [3]): 20%; pest or weed control at 50 g/ha (cocklebur [4]): 40%; pest or weed control at 50 g/ha (velvetleaf [5]; Abutilon theophrasti, read-out: Soil treatment herbicidal activity, velvet leaf): 30%; pest or weed control at 50 g/ha (crabgrass [6]): 20%; pest or weed control at 50 g/ha (velvetleaf [9]): 30%; pest or weed control at 50 g/ha (crabgrass [12]): 20%; pest or weed control at 50 g/ha (fall panicum [13]): 20%; pest or weed control at 50 g/ha (cocklebur [18]): 40% |
| CCON(Cc1nnn(C)n1)c1nc(C(F)(F)F)ccc1C(=O)Nc1nnnn1C [Compound No. 2-31, 2-(ethoxy((2-methyl-2H-tetrazol-5-yl)methyl)amino)-N-(1-methyl-1H-tetrazol-5-yl)-6-(trifluoromethyl)nicotinamide] | 0 | 0 | – | – | 100 | – | 0 | 0 | – | 100 | – | – | – | 100 | 100 | 0 | – | – | – | 0 | pest or weed control at 50 g/ha (fall panicum [3]): 40%; pest or weed control at 50 g/ha (cocklebur [4]): 30%; pest or weed control at 50 g/ha (crabgrass [6]): 60%; pest or weed control at 50 g/ha (velvetleaf [9]): 70%; pest or weed control at 50 g/ha (indian jointvetch [11]): 40%; pest or weed control at 50 g/ha (crabgrass [12]): 98%; pest or weed control at 50 g/ha (fall panicum [13]): 95%; pest or weed control at 50 g/ha (barnyard grass [17]; Echinochloa crus-galli): 90%; pest or weed control at 50 g/ha (cocklebur [18]): 70%; pest or weed control at 50 g/ha (indian jointvetch [19]): 98% |
| Cn1nnc(CN(OCc2ccccc2)c2nc(C(F)(F)F)ccc2C(=O)Nc2nnnn2C)n1 [Compound No. 2-29, 2-((benzyloxy)((2-methyl-2H-tetrazol-5-yl)methyl)amino)-N-(1-methyl-1H-tetrazol-5-yl)-6-(trifluoromethyl)nicotinamide] | 0 | 0 | 0 | 0 | 0 | 0 | 0 | 0 | 0 | – | 0 | 0 | 0 | 0 | – | 0 | 0 | 0 | 0 | 0 | pest or weed control at 50 g/ha (black nightshade [10]; Solanum nigrum): 20%; pest or weed control at 50 g/ha (black nightshade [15]; Solanum nigrum): 20% |
